Test results from patent US12011439B2, “Combination therapy using C—C chemokine receptor 4 (CCR4) antagonists and one or more immune checkpoint inhibitors” (CHEMOCENTRYX, INC., priority 2018, dated 2024).

How the values were obtained:
Assay in all cases: Compound 1 selectivity panel, buffer IC50
Assay type in all cases: cell-based
CCR2 = CCR2 (Homo sapiens, UniProt P41597); details: Receptor CCR2
Description: (§1) The selectivity of Compound 1 was tested by determining the IC50 value against a diverse panel of receptors, enzymes, and ion channels. […] See, Table 1.

CCR9 = molecular target: T1, CCR9 (Homo sapiens, UniProt P51686); details: Receptor CCR9
T1 sequence (P51686 1-369): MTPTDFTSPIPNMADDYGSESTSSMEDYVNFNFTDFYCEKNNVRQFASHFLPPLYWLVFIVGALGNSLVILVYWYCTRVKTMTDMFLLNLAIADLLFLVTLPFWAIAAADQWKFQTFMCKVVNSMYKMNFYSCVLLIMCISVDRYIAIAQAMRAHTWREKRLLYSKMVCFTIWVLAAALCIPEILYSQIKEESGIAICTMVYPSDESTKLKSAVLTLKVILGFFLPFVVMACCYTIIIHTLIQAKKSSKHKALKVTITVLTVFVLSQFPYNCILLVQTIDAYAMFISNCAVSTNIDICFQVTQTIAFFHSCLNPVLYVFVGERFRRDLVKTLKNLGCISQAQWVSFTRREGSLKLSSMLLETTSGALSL
Description: as §1

CXCR7 = CXCR7 (Homo sapiens, UniProt P25106); details: Receptor CXCR7
Description: as §1

CCR1 = molecular target: T2, CCR1 (Homo sapiens, UniProt P32246); details: Receptor CCR1
T2 sequence (P32246 1-355): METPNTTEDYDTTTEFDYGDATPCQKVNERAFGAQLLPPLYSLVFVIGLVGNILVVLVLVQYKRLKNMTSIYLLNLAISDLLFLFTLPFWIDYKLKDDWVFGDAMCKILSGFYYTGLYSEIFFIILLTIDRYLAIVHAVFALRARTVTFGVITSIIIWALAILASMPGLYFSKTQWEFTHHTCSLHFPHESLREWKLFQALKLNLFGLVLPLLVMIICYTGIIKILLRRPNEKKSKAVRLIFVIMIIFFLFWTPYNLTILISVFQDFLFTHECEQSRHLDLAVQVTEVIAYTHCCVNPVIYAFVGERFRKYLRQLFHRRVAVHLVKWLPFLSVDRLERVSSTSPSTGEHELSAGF
Description: as §1

CCR5 = CCR5 (Homo sapiens, UniProt P51681); details: Receptor CCR5
Description: as §1

CCR4 = molecular target: T3, CCR4 (Homo sapiens, UniProt P51679)
T3 sequence (P51679 1-360): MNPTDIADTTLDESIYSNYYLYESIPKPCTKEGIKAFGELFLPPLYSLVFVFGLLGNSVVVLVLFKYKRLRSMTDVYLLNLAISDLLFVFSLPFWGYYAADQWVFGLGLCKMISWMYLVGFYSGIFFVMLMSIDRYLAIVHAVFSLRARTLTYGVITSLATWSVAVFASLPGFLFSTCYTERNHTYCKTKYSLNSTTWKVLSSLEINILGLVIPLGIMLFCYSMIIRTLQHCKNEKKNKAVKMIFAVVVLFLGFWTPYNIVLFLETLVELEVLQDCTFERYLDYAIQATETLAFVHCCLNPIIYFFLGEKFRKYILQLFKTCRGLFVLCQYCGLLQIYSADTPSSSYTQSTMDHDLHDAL
Description: as §1

CCR10 = molecular target: T4, CCR10 (Homo sapiens, UniProt P46092); details: Receptor CCR10
T4 sequence (P46092 1-362): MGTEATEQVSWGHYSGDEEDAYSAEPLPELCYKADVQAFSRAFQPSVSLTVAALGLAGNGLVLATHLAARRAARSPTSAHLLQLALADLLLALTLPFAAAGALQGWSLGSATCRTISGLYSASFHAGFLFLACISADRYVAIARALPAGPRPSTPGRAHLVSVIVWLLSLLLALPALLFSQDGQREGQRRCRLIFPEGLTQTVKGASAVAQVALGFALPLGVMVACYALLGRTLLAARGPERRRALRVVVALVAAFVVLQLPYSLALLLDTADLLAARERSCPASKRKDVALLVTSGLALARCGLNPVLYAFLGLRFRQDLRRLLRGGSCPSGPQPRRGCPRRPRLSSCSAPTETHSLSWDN
Description: as §1

CXCR4 = CXCR4 (Homo sapiens, UniProt P61073); details: Receptor CXCR4
Description: as §1

CXCR6 = CXCR6 (Homo sapiens, UniProt O00574); details: Receptor CXCR6
Description: as §1

CCR8 = CCR8 (Homo sapiens, UniProt P51685); details: Receptor CCR8
Description: as §1

CCR6 = molecular target: T5, CCR6 (Homo sapiens, UniProt P51684); details: Receptor CCR6
T5 sequence (P51684 1-374): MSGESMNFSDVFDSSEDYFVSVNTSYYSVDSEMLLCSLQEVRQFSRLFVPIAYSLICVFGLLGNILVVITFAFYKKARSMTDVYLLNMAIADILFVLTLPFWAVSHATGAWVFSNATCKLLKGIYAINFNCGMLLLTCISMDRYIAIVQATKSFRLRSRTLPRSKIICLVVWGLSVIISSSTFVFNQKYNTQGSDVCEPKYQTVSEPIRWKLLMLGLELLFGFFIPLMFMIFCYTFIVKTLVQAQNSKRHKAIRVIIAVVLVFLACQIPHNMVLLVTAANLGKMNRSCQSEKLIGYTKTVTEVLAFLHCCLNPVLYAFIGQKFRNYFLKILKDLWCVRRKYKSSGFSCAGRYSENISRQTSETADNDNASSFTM
Description: as §1

CXCR2 = molecular target: T6, CXCR2 (Homo sapiens, UniProt P25025); details: Receptor CXCR2
T6 sequence (P25025 1-360): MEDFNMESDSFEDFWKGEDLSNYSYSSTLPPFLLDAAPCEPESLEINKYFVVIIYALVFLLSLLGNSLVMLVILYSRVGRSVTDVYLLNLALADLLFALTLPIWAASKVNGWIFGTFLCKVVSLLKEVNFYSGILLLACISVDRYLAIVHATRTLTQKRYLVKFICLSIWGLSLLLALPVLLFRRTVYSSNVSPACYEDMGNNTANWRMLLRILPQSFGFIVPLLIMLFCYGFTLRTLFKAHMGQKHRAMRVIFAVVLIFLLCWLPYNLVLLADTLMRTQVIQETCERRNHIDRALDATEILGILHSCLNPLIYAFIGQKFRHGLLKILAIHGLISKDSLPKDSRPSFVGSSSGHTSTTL
Description: as §1

Chain of CXCR6 (O00574 whole entry, species assumed): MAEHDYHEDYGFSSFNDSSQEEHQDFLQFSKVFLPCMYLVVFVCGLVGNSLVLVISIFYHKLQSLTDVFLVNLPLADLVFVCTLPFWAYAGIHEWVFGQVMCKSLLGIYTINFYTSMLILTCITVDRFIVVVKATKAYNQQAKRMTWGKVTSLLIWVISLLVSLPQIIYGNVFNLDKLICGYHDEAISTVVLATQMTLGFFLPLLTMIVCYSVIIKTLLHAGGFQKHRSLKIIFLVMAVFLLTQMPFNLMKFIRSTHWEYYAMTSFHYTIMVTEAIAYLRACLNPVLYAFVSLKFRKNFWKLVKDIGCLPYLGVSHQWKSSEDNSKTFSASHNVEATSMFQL
Chain of CCR8 (P51685 whole entry, species assumed): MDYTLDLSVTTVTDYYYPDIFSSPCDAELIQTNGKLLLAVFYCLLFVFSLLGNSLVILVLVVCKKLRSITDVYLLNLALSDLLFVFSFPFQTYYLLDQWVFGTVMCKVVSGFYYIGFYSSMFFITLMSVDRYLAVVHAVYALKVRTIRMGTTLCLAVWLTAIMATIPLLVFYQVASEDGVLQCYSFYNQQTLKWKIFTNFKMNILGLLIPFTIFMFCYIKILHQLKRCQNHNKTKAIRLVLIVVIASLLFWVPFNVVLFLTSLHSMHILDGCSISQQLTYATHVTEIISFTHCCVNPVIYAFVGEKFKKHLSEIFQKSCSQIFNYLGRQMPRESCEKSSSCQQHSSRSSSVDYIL
Chain of CCR5 (P51681 whole entry, species assumed): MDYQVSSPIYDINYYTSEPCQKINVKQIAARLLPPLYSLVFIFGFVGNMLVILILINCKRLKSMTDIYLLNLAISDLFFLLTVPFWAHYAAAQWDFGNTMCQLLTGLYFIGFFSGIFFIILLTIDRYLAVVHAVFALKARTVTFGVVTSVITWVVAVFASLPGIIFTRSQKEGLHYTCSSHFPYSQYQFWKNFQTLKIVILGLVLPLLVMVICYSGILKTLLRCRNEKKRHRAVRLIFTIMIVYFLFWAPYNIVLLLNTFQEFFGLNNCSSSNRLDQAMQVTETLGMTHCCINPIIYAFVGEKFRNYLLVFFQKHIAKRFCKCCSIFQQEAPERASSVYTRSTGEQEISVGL
Chain of CXCR7 (P25106 whole entry, species assumed): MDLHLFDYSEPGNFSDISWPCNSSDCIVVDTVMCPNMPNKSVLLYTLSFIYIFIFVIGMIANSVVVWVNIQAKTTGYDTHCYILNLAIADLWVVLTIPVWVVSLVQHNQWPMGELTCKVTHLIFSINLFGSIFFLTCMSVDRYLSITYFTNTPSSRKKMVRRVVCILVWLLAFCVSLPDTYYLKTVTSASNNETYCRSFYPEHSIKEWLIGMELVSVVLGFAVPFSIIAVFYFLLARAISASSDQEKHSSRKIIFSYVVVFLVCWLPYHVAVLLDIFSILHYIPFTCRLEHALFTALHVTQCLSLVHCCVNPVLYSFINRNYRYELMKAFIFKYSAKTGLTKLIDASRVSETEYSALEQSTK
Chain of CCR2 (P41597 whole entry, species assumed): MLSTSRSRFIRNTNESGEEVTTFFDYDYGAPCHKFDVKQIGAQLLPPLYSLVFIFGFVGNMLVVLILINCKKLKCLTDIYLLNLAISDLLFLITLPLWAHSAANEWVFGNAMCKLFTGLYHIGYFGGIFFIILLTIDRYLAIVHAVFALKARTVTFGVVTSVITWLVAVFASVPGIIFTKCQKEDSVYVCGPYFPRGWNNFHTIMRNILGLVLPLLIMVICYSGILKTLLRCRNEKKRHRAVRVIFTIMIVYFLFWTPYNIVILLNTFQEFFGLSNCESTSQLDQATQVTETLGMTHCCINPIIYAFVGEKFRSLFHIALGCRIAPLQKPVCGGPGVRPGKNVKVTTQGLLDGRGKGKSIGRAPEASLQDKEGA
Chain of CXCR4 (P61073 whole entry, species assumed): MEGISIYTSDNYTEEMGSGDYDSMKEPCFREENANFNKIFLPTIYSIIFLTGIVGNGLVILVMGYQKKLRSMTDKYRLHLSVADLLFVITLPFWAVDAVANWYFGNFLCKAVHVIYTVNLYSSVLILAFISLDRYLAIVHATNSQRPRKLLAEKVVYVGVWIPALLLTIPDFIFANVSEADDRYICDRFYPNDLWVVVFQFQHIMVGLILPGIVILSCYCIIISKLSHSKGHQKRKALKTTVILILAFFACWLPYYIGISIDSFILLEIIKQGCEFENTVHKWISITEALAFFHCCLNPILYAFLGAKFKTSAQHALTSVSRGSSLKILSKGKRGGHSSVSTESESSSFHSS

IC50 (CCR2): > 10 µM | IC50 (CCR9): > 10 µM | IC50 (CXCR7): > 10 µM | IC50 (CCR1): > 10 µM | IC50 (CCR5): > 10 µM | IC50 (CCR4; Receptor CCR4, buffer): 0.002 µM | Selectivity against a diverse panel of receptors, enzymes, and ion channels (CCR4; in words): highly specific for CCR4 | IC50 (CCR10): > 10 µM | IC50 (CXCR4): > 10 µM | IC50 (CXCR6): > 10 µM | IC50 (CCR8): > 10 µM | IC50 (CCR6): > 10 µM | IC50 (CXCR2): > 10 µM
SMILES: C[C@@H](Nc1cc(C2CCN([C@H]3CCCN(CCC(=O)O)C3)CC2)ccc1Cl)c1ccc(Cl)cc1Cl [Compound 1]
